Source: patent US10849906B2, “Use of Akt2 in diagnosis and treatment of tumor” (priority 2015, dated 2020)
One block for each compound: values may come before it.

Columns and labels:
CCRF-CEM cells [1] = assay: Cell viability by CCK-8 and combination index, CCRF-CEM; type: cell-based; conditions: Homo sapiens, dexamethasone alone (original), read-out: concentration of dexamethasone at which 50% viability of CCRF-CEM cells (IC50 value) was inhibited
Procedure: (§1) As described in Example 3, the cells were cultured in RPMI 1640 complete medium containing 10% fetal bovine serum under 5% CO2 and 37° C. until reaching logarithmic growth phase, and then dexamethasone and different concentrations of Akt inhibitor were added to the culture medium, followed by further culture (for addition of dexamethasone/DMSO, for 48 hours, and for addition of the inhibitor, for 24 hours), the apoptosis was detected by Annexin V-FITC PI double staining method and proteins were detected by Western blot as described in Example 1 as well as the cell viability was detected by CCK-8 method.
(§2) The inhibitory effect of two drugs (dexamethasone and an inhibitor) alone and in combination on various lymphocyte lines was observed by CCK-8 method (CCK-8 kit), and then the half-inhibitory concentration of each drug was calculated using the median effect equation, and the combination index (CI) of the two drugs used in combination was calculated using CompuSyn software. […]
(§3) (3) 10 μl of CCK-8 was added to each well, and cultured for 2 hours, and the optical density (OD) was measured at 450 nm using an automatic microplate reader, and the proliferation inhibition rate of the drug on cell was calculated. […]

CEM-DR cells = assay: Cell viability by CCK-8 and combination index, CEM-DR; type: cell-based; conditions: Homo sapiens; dexamethasone alone (original); read-out: concentration of dexamethasone at which 50% viability of CEM-DR cells (IC50 value) was inhibited
Procedure: as §1, §2, §3

Jurkat cells [2] = assay: Cell viability by CCK-8 and combination index, Jurkat; type: cell-based; conditions: Homo sapiens, dexamethasone alone (original), read-out: concentration of dexamethasone at which 50% viability of Jurkat cells (IC50 value) was inhibited
Procedure: as §1, §2, §3

Daudi cells [3] = assay: Cell viability by CCK-8 and combination index, Daudi; type: cell-based, human
Procedure: as §1
The inhibitory effect of two drugs (dexamethasone and an inhibitor) alone and in combination on various lymphocyte lines was observed by CCK-8 method (CCK-8 kit), and then the half-inhibitory concentration of each drug was calculated using the median effect equation, and the combination index (CI) of the two drugs used in combination was calculated using CompuSyn software.
(1) the lymphocytes of logarithmic growth phase were taken and made to a cell suspension of 5×10^4/mL, a blank control group (5 wells), a dexamethasone group (3 wells for each concentration, triplicates), a single inhibitor group (3 wells for each concentration, triplicates), a dexamethasone plus inhibitor group (3 wells for each combined concentration, triplicates) were prepared, 180 μL of the suspension was seeded to each well of a 96-well plate, and incubated for 24 hours in an incubator at 5% CO2 and 37° C.
Based on the drug resistance of cells, the ratio of two drugs was fixed. The dexamethasone group was cultured for 48 hours while the inhibitor group was cultured for 24 hours.
(3) 10 μl of CCK-8 was added to each well, and cultured for 2 hours, and the optical density (OD) was measured at 450 nm using an automatic microplate reader, and the proliferation inhibition rate of the drug on cell was calculated.
(4) the proliferation inhibition rate was calculated according to the following equation: cell proliferation inhibition rate=(1-average OD value in the test group/average OD value in the control group)×100%, and the effect of interaction between the two drugs was analyzed by Chou-Talalay combination index method.

[4] = system: L-02 human-derived healthy liver cell line; assay: CCK-8 viability of healthy liver cells L-02; conditions: FIG. 6A; for damage to liver cells: DEX 0.1 μM, inhibitors 0.8 μM
[5] = Toxicity in tumor-bearing nude mice (peripheral blood test, organ pathology)
CCRF-CEM cells [6] = assay: Apoptosis by Annexin V-FITC PI double staining (flow cytometry), CCRF-CEM; type: cell-based, human; conditions: compared to dexamethasone alone; FIG. 2A: Akt inhibitor 1 μM, dexamethasone 1 μM, LY294002 30 μM; FIG. 2G, 2J, 2K
Procedure: (§4) The control group was not added with any reagents. All experiments were performed in triplicate.
(§5) Apoptosis was detected by Annexin V-FITC PI double staining method (flow cytometry kit (FITC, PI double staining), Sangon Biotech (Shanghai) Co., Ltd.)), and the collected cells were washed once with phosphate buffered saline (PBS) (135 mM NaCl, 2.7 mM KCl, 1.5 mM KH2PO4 and 8 mM K2HPO4, pH 7.2); the 4× binding buffer was diluted to a 1× binding buffer with deionized water, then the cells were resuspended with 195 ul of the 1× binding buffer at a cell density of 2-5×10^5/ml; 5 μl of Annexin V-FITC was added to the 195 μl of the cell resuspension and mixed, and incubated in dark at room temperature for 10 minutes; the cells were washed once with 200 μl of the 1× binding buffer, and then resuspended in 190 μl of the 1× binding buffer; 10 μl of propidium iodide (20 μg/ml) was added. A flow cytometry device (Beckman company) was used for detection, and the rate of apoptosis was analyzed using Summit software.
(§6) The cells were cultured in RPMI 1640 complete medium (Gibco company) containing 10% fetal bovine serum (FBS, Gibco company) in an incubator (Thermo company) at 5% CO2 and 37° C. until reaching logarithmic growth phase, then different concentrations of inhibitors and/or dexamethasone/ethanol/DMSO were added to the culture medium, followed by further culturing (for addition of dexamethasone/ethanol/DMSO, for 48 hours, and for addition of inhibitor, for 24 hours), and apoptosis was detected by Annexin V-FITC PI double staining and proteins were detected by Western blot, as described in Example 1.
as §1

[7] = system: Akt/FoxO3a/Bim signaling pathway in CCRF-CEM cells; assay: Western blot of Akt/FoxO3a/Bim signaling pathway proteins in CCRF-CEM cells; type: cell-based, human
Procedure: as §4
Protein detection by Western blot: in the examples of the present invention, Akt antibody (rabbit derived), phosphorylated Akt antibody (rabbit derived), FoxO3a antibody (rabbit derived), phosphorylated FoxO3a antibody (rabbit derived) and GAPDH antibody (rabbit derived) and secondary antibodies were all purchased from CST company. The cells were collected in a centrifuge tube and centrifuged at 1000 rpm, the supernatant was discarded and the cells were washed twice with PBS pre-cold at 4° C.; cell lysis buffer (150 mM NaCl, 1% NP-40, 0.1% SDS, 2 μg/ml Aprotinin, 2 μg/ml Leupeptin, 1 mM PMSF, 1.5 mM EDTA, 1 mM sodium vanadate) was added and the cells were lysed on ice for 40 minutes, the cell lysate was centrifuged at 20000 rpm, 4° C. for 15 minutes, and the supernatant was collected; a protein loading buffer for sodium dodecyl sulfate polyacrylamide (SDS-PAGE) gel electrophoresis (1.25 mL 1MTris-HCl (pH6.8), 0.5 g SDS, 25 mg BPB, 2.5 mL glycerol, 5 mL deionized water) was added, followed by boiling for 5 minutes to denature proteins; the loading buffer containing denatured proteins was applied to 10% SDS-PAGE for electrophoresis at 120 V, and then transferred to a PVDF membrane (Sangon Biotech (Shanghai) Co., Ltd.) at 130 V for 1.5 hours; after the membrane transfer was completed, the PVDF membrane was immediately rinsed with a Western washing solution (150 mmol/L NaCl, 50 mmol/L Tris-HCl (pH 7.5)) for 1-2 minutes; added with 5% non-fat milk powder (Shanghai Biotechnology Co., Ltd.), agitated gently and then blocked at room temperature for 60 minutes; a primary antibody diluted appropriately with 5% non-fat milk powder was added, and incubated overnight at room temperature with gentle agitating; the primary antibody was recovered and the membrane was washed three times with the washing solution for 5-10 minutes each; a horseradish peroxidase-labeled secondary antibody diluted appropriately with the Western washing solution was added, and incubated at room temperature for 1 hour with gentle agitating; the secondary antibody was recovered and the membrane was washed three times with the Western washing solution for 5-10 minutes each. An appropriate amount of developing solution (DAB 4 mg, 30% hydrogen peroxide 15 μL, 0.01 M Tris-Cl (pH 7.5) 5 mL) was dropped on the PVDF membrane, the image was detected using a bioluminescence image colorimeter and a gel imaging system (Thermo company), and the quantitative analysis of bands was performed using Image Lab software.
as §6
Methods: CCRF-CEM cells were cultured in RPMI 1640 complete medium (Gibco company) containing 10% fetal bovine serum (FBS, Gibco company) in an incubator (Thermo company) at 5% CO2 and 37° C. until reaching logarithmic growth phase, then DMSO, dexamethasone and different inhibitors (DMSO: 0.1%, dexamethasone: 0.1 μM, inhibitors: 0.8 μM) were added to the culture medium, and further cultured (for addition of dexamethasone or DMSO, for 48 hours, and for addition of inhibitors, for 24 hours), and the proteins were detected by Western blot, as described in Example 1.

Jurkat cells [8] = assay: Apoptosis by Annexin V-FITC PI double staining, Jurkat; type: cell-based, human
Procedure: as §5, §6, §1
The transfected cells were selected and passaged for 3 to 5 passages after resuscitation, with Interferin™ as transfection reagent, and the transfection procedure was performed in accordance with the instruction of the transfection reagent. In short, the cells of logarithmic growth phase were plated at 2×10^5/well, the cells were replaced with fresh complete medium (free of antibiotics) during transfection, siRNA was diluted with Opti-MEM and added with an appropriate amount of […]in™ and mixed, incubated at room temperature for 10 minutes prior to being added dropwise to the cells, and the cells were harvested at appropriate time. The cells were transfected with green fluorescein-labeled siRNA (FAM-siRNA) (siRNA at a final concentration of 20 μM, 1.25 μl/well), and the transfection efficiency was observed using a fluorescence microscope 24 hours later. The dexamethasone group was added 24 hours after transfection, followed by culture for further 24 hours, and then the cells were collected for observation; and the equal amount of anhydrous ethanol was added to the control group.

Daudi cells [9] = assay: Apoptosis by Annexin V-FITC PI double staining, Daudi; type: cell-based, human; conditions: compared to the dexamethasone group; FIG. 2K, 4L
Procedure: as §5
as §6, with “1. […]” for “1.”

[10] = system: Akt/FoxO3a/Bim proteins in L-02 cells; assay: Western blot of Akt/FoxO3a/Bim proteins in L-02 cells; type: cell-based, human; conditions: pretreated with inhibitor 0.8 μM; FIG. 6B
Procedure: Protein detection by Western blot: in the examples of the present invention, Akt antibody (rabbit derived), phosphorylated Akt antibody (rabbit derived), FoxO3a antibody (rabbit derived), phosphorylated FoxO3a antibody (rabbit derived) and GAPDH antibody (rabbit derived) and secondary antibodies were all purchased from CST company. […] An appropriate amount of developing solution (DAB 4 mg, 30% hydrogen peroxide 15 μL, 0.01 M Tris-Cl (pH 7.5) 5 mL) was dropped on the PVDF membrane, the image was detected using a bioluminescence image colorimeter and a gel imaging system (Thermo company), and the quantitative analysis of bands was performed using Image Lab software.

[11] = CCRF-CEM, inhibitors 0.8 μM, FIG. 5A

IC50 (CCRF-CEM cells [1]): 0.3 µM | IC50 (Jurkat cells [2]): 224 µM | IC50 (Daudi cells [3]; Homo sapiens, Daudi, dexamethasone alone (original), read-out: concentration of dexamethasone at which 50% viability of Daudi cells (IC50 value) was inhibited): 225 µM
Compound: C[C@@H]1C[C@H]2[C@@H]3CCC4=CC(=O)C=C[C@]4(C)[C@@]3(F)[C@@H](O)C[C@]2(C)[C@@]1(O)C(=O)CO [dexamethasone]
IC50 (CEM-DR cells): 138 µM | damage to liver cells [4]: no damage to liver cells | peripheral blood leukocyte level ([5]; compared to the NC group, FIG. 6J): no significant difference | level of peripheral blood RBC ([5]; compared to the NC group, FIG. 6K): significantly increased | level of peripheral blood HGB ([5]; compared to the NC group, FIG. 6L): significantly increased | peripheral blood platelet level ([5]; compared to the NC group, FIG. 6M): no significant difference | blood glucose level ([5]; compared to the NC group, FIG. 6N): no significant difference | peripheral blood creatinine level ([5]; compared to the NC group, FIG. 6O): no significant difference

Compound: C[C@H](NC(=O)Cc1cc(F)cc(F)c1)C(=O)N[C@H](C(=O)OC(C)(C)C)c1ccccc1 [dapt]
apoptosis of CCRF-CEM cells induced by dexamethasone, inhibitor plus dexamethasone (CCRF-CEM cells [6]): significantly increased | expression of phosphorylated FoxO3a, inhibitor plus dexamethasone ([7]; compared to the only dexamethasone group, FIG. 2B, 2H, 2I): significantly reduced

Compound: Cc1[nH]nc2ccc(-c3cncc(OC[C@@H](N)Cc4ccccc4)c3)cc12 [A-674563]
apoptosis of Jurkat cells, inhibitor in combination with dexamethasone (Jurkat cells [8]; compared to the only/single dexamethasone group, FIG. 2F, 4J): significantly increase | apoptosis of Daudi cells, inhibitor in combination with dexamethasone (Daudi cells [9]): significantly increase | expression of p-Akt1 [7, 11]: effectively inhibited | expression of p-Akt2 [7, 11]: compensatory increase | effect of inhibitor in combination with dexamethasone in B lymphoma cells (in words) (Daudi cells [3]; B lymphoma cells, as shown in Table 1): low degree of synergistic effect | expressions of p-Akt1 and p-Akt2 in L-02 cells [10]: correspondingly increased | damage to liver cells [4]: most serious damage | recovery of liver cell activity [4]: did not recover within 48-hour | liver pathology (HE staining) ([5]; 7-day administration, FIG. 8A, 8B): did not cause morphological changes of the liver tissues | level of TBIL ([5]; compared to the NC group, FIG. 6I): significantly increased | level of peripheral blood AST ([5]; compared to the normal saline group (NC), FIG. 3F, 6H): significantly increased

Compound: Akt1 siRNA: siRNA, SEQ ID NO: 5 GGCCCAACACCUUCAUCAUTT and SEQ ID NO: 6 AUGAUGAAGGUGUUGGGCCTT (chain 1 GGCCCAACACCUUCAUCAUNN; chain 2 AUGAUGAAGGUGUUGGGCCNN; listed as RNA, chemistry not given here)
apoptosis of siRNA-transfected Jurkat cells induced by dexamethasone (Jurkat cells [8]; compared to the dexamethasone group, FIG. 5H): not increased
